Measurements as given in ChEMBL document CHEMBL1150225, “Cytotoxic cholestane glycosides from the bulbs of Ornithogalum saundersiae” (J Nat Prod, 2001).

Experiments:
Format in all cases: functional
T47D = test: Cytotoxicity against human T47D cells
SF-295 = test: Cytotoxicity against human SF295 cells
MDA-MB-231 = test: Cytotoxicity against human MDA-MB-231 cells
COLO 205 = test: Cytotoxicity against human COLO205 cells
SF-268 = test: Cytotoxicity against human SF268 cells
KM12 = test: Cytotoxicity against human KM12 cells
OVCAR-5 = test: Cytotoxicity against human OVCAR5 cells
SF-539 = test: Cytotoxicity against human SF539 cells
CCRF-CEM = test: Cytotoxicity against human CCRF-CEM cells
SK-OV-3 = test: Cytotoxicity against human SKOV3 cells
A549 = test: Cytotoxicity against human A549 cells
MDA-N = test: Cytotoxicity against human MDA-N cells
M14 = test: Cytotoxicity against human M14 cells
SK-MEL-5 = test: Cytotoxicity against human SK-MEL-5 cells
HCT-116 = test: Cytotoxicity against human HCT116 cells
OVCAR-4 = test: Cytotoxicity against human OVCAR4 cells
BT-549 = test: Cytotoxicity against human BT549 cells
EKVX = test: Cytotoxicity against human EKVX cells
HOP-62 = test: Cytotoxicity against human HOP62 cells
SNB-19 = test: Cytotoxicity against human SNB19 cells
[1] = Cytotoxicity against human Hs 578T cells
SW-620 = test: Cytotoxicity against human SW620 cells
LOX IMVI = test: Cytotoxicity against human LOXIMVI cells
SN12C = test: Cytotoxicity against human SN12C cells
U-251 = test: Cytotoxicity against human U251 cells
MOLT-4 = test: Cytotoxicity against human MOLT4 cells
OVCAR-8 = test: Cytotoxicity against human OVCAR8 cells
UACC-62 = test: Cytotoxicity against human UACC62 cells
MDA-MB-435 = test: Cytotoxicity against human MDA-MB-435 cells
SK-MEL-2 = test: Cytotoxicity against human SK-MEL-2 cells
[2] = read-out: pLC50 (the source's name) (converted)

Structure (SMILES): COc1ccc(C(=O)O[C@H]2[C@H](O[C@@H]3[C@@H](OC(C)=O)[C@H](O[C@H]4C[C@H]5[C@@H]6CC=C7C[C@@H](O)CC[C@]7(C)[C@H]6CC[C@]5(C)[C@@]4(O)[C@H](C)C(=O)CCC(C)C)OC[C@@H]3O)OC[C@@H](O)[C@@H]2O)cc1
- GI50 (T47D): 5.13 nM
- CC50 (T47D; [2]): 7760 nM
- TGI (T47D; read-out: pTGI (converted)): 1510 nM
- GI50 (SF-295): 0.0479 nM
- CC50 (SF-295; [2]): 30.2 nM
- TGI (SF-295; read-out: pTGI (converted)): 2.29 nM
- GI50 (MDA-MB-231): 19.1 nM
- CC50 (MDA-MB-231; [2]): 5370 nM
- TGI (MDA-MB-231; read-out: pTGI (converted)): 1290 nM
- GI50 (COLO 205): 1 nM
- CC50 (COLO 205; [2]): 288 nM
- TGI (COLO 205; read-out: pTGI (converted)): 1.58 nM
- GI50 (SF-268): 2.4 nM
- CC50 (SF-268; [2]): 7410 nM
- TGI (SF-268; read-out: pTGI (converted)): 851 nM
- GI50 (KM12): 0.407 nM
- CC50 (KM12; [2]): 1100 nM
- TGI (KM12; read-out: pTGI (converted)): 39.8 nM
- GI50 (OVCAR-5): 50.1 nM
- CC50 (OVCAR-5; [2]): 5890 nM
- TGI (OVCAR-5; read-out: pTGI (converted)): 2000 nM
- GI50 (SF-539): 0.1 nM
- CC50 (SF-539; [2]): 182 nM
- TGI (SF-539; read-out: pTGI (converted)): 4.47 nM
- GI50 (CCRF-CEM): 0.1 nM
- CC50 (CCRF-CEM; [2]): 1200 nM
- TGI (CCRF-CEM; read-out: pTGI (converted)): 7.08 nM
- GI50 (SK-OV-3): 3.98 nM
- CC50 (SK-OV-3; [2]): 10000 nM
- TGI (SK-OV-3; read-out: pTGI (converted)): 1200 nM
- GI50 (A549): 0.457 nM
- CC50 (A549; [2]): 8130 nM
- TGI (A549; read-out: pTGI (converted)): 2090 nM
- GI50 (MDA-N): 0.776 nM
- CC50 (MDA-N; [2]): 490 nM
- TGI (MDA-N; read-out: pTGI (converted)): 8.91 nM
- GI50 (M14): 0.269 nM
- CC50 (M14; [2]): 51.3 nM
- TGI (M14; read-out: pTGI (converted)): 0.955 nM
- GI50 (SK-MEL-5): 0.759 nM
- CC50 (SK-MEL-5; [2]): 282 nM
- TGI (SK-MEL-5; read-out: pTGI (converted)): 43.6 nM
- GI50 (HCT-116): 0.38 nM
- CC50 (HCT-116; [2]): 1290 nM
- TGI (HCT-116; read-out: pTGI (converted)): 191 nM
- GI50 (OVCAR-4): 3.63 nM
- CC50 (OVCAR-4; [2]): 5750 nM
- TGI (OVCAR-4; read-out: pTGI (converted)): 2190 nM
- GI50 (BT-549): 1.82 nM
- CC50 (BT-549; [2]): 4570 nM
- TGI (BT-549; read-out: pTGI (converted)): 1700 nM
- GI50 (EKVX): 0.182 nM
- CC50 (EKVX; [2]): 6610 nM
- TGI (EKVX; read-out: pTGI (converted)): 550 nM
- GI50 (HOP-62): 0.159 nM
- CC50 (HOP-62; [2]): 129 nM
- TGI (HOP-62; read-out: pTGI (converted)): 2 nM
- GI50 (SNB-19): 12.9 nM
- CC50 (SNB-19; [2]): 2880 nM
- TGI (SNB-19; read-out: pTGI (converted)): 331 nM
- GI50 [1]: 0.0537 nM
- CC50 [1, 2]: 2000 nM
- TGI ([1]; read-out: pTGI (converted)): 0.741 nM
- GI50 (SW-620): 0.129 nM
- CC50 (SW-620; [2]): 21.9 nM
- TGI (SW-620; read-out: pTGI (converted)): 0.549 nM
- GI50 (LOX IMVI): 0.251 nM
- CC50 (LOX IMVI; [2]): 91.2 nM
- TGI (LOX IMVI; read-out: pTGI (converted)): 2.29 nM
- GI50 (SN12C): 1290 nM
- CC50 (SN12C; [2]): 6760 nM
- TGI (SN12C; read-out: pTGI (converted)): 2880 nM
- GI50 (U-251): 0.0257 nM
- CC50 (U-251; [2]): 2510 nM
- TGI (U-251; read-out: pTGI (converted)): 51.3 nM
- GI50 (MOLT-4): 0.0977 nM
- CC50 (MOLT-4; [2]): 457 nM
- TGI (MOLT-4; read-out: pTGI (converted)): 11 nM
- GI50 (OVCAR-8): 15.1 nM
- CC50 (OVCAR-8; [2]): 5370 nM
- TGI (OVCAR-8; read-out: pTGI (converted)): 1580 nM
- GI50 (UACC-62): 0.309 nM
- CC50 (UACC-62; [2]): 3.63 nM
- TGI (UACC-62; read-out: pTGI (converted)): 1.29 nM
- GI50 (MDA-MB-435): 0.575 nM
- CC50 (MDA-MB-435; [2]): 407 nM
- TGI (MDA-MB-435; read-out: pTGI (converted)): 8.91 nM
- GI50 (SK-MEL-2): 0.347 nM
